Measurements from patent US9944607B2, “Thiohydantoin derivatives and uses thereof” (Whitehead Institute for Biomedical Research, priority 2012, dated 2018).
pIC50: −log10 of the molar value. In brackets after ≈: the same amount, converted by molar mass. Like-named read-outs stand apart in the source and are kept apart here.

Columns and labels:
[1] = Solubility in PBS pH 7.4 with 1% DMSO; conditions: for solubility at 24 h: pH 7.4, aqueous buffer, kinetic from dmso stock; for PBS Solubility: PBS pH 7.4 with 1% DMSO, 24 hours, room temperature
How it was run: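 Compounds at 100 μM in duplicate in PBS pH 7.4 containing 1% DMSO, shaken 24 hours at room temperature. Concentration measured by UPLC-MS with SIR detection, fitted to a two-point calibration from matching 100% DMSO samples.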

[2] = tested on: Candida albicans CaCi-17; assay: Primary assay: C. albicans CaCi-17 growth inhibition (Alamar Blue); format: cell-based; conditions: for IC50 / pIC50: Candida albicans; for IC50: read-out: Growth Inhibition Activity, IC50 (μM), C. albicans (n = 3) CaCi-17
[3] = tested on: Saccharomyces cerevisiae W303; assay: Secondary S. cerevisiae inhibition in glycerol media (OD600); format: cell-based; conditions: for IC50 / pIC50: Saccharomyces cerevisiae; for IC50: read-out: Growth Inhibition Activity, IC50 (μM), S. cerevisiae (n = 3) On glycerol
Text: (§1) Cell Lines. • Candida albicans CaCi-2; a drug-resistant clinical isolate was provided by the Whitehead Institute (Redding et al., Clin. Infect. Dis. 1994, 18(2):240-2). This strain was used for the primary assay. • Candida albicans CaCi-17; a strongly drug-resistant clinical isolate was provided by the Whitehead Institute (Redding et al., Clin. Infect. Dis. 1994, 18(2):240-2). This strain was used for the primary assay • Saccharyomyces cerevisiae W303-1a (ATCC 208352); a well-characterized Saccharomyces strain used for determination of glycolytic vs. respiratory metabolism, as well as in the mitochondrial disruption assay. • Candida glabrata (ATCC 2001); used for determination of glycolytic vs. respiratory metabolism. • NIH-3T3 mammalian fibroblasts (ATCC; CRL no.1658); used for mammalian toxicity assays. […]
(§2) Saccharomyces, while not a major human pathogen, is a useful lab model with well-developed genetic tools available. Candida glabrata is an increasingly prominent clinical problem for immune-compromised patients but with fewer genetic tools available with which to study it. These organisms can utilize alternative metabolic pathways to support growth and survival depending on the carbon source. By comparing the concentration-dependent inhibition of yeast growth in glycerol relative to glucose media, a quantitative assessment of a compound's ability to disrupt respiration can be determined. […].
Clear, flat bottom, black 384-well plates (Corning Catalog no. 3712BC; Lot no. 35808016); Amphotericin B (Sigma Catalog no. A2411) 15 mM stock solution in DMSO; Pen/Strep (Gibco Catalog no. 10378-016; Lot no21040170) 100× in PBS.
Synthetic defined growth medium. Complete Supplement Mixture; (Sunrise Science, Catalog No. 1001-100); Yeast Nitrogen Base without ammonium sulfate (MP Biomedicals, Catalog No. 4027-012); Glycerol (Sigma Catalog No. G-9012). • Prepare medium by dissolving 0.79 g Complete Supplement Mixture and 1.7 g Yeast Nitrogen Base in 800 mL water. • Add 20 mL of glycerol. Adjust final volume to 1000 mL. Filter sterilize.
(§3) Fungal Inoculum. Test Strains: C. glabrata (ATCC 2001) and Saccharomyces cerevisiae W303. • Inoculate 100 μL of yeast from cryopreserved stock into 250 mL shaker flask containing 20 mL growth medium. Shake at 30° C. overnight (about 16 hours). • Read OD 600 of 1 mL of fungal culture in a cuvette using a standard optical density reader (Eppendorf BioPhotometer Plus), with growth medium as a background blank. • Dilute to desired volume of fungal inoculum to produce an OD600 reading of 0.005 (S. cerevisiae) or 0.004 (C. glabrata).
(§4) Procedures • Use a Thermo Combi nL to dispense 20 μL/well of assay media into all wells. • Add 2 μL of Amphotericin B to control wells. • Pin 100 nL of test compound from compound plates into assay plates using a CyBi-Well pin tool. • Dispense 20 μL/well of culture into the assay media in all wells. • Incubate the plates in a humidified (90% humidity) Liconic incubator at 37° C. without agitation for 48 hours. • Shake plates briefly. • Read OD600 of wells on a standard plate reader as measure of relative fungal growth. Envision (Perkin Elmer) plate reader settings: Ex Photometric 600, Top read. Secondary Glucose Assay Protocol (AID 623971, 623967, 624013, 624025) Materials and Reagents

[4] = tested on: Saccharomyces cerevisiae W303; assay: Secondary S. cerevisiae inhibition in glucose media (OD600); format: cell-based; conditions: Saccharomyces cerevisiae; for IC50: read-out: Growth Inhibition Activity, IC50 (μM), S. cerevisiae (n = 3) On glucose
Text: as §1, §2, §4
Clear, flat bottom, black 384-well plates (Corning, Catalog No. 3712BC; Lot No. 35808016); Amphotericin B (Sigma, Catalog no. A2411) 15 mM stock solution in DMSO; Pen/Strep (Gibco, Catalog No. 10378-016; Lot no21040170) 100× in PBS.
Synthetic defined growth medium. Complete Supplement Mixture; (Sunrise Science, Catalog No. 1001-100); Yeast Nitrogen Base without ammonium sulfate (MP Biomedicals, Catalog No. 4027-012); Glucose (Sigma, Catalog No. G7021). • Prepare medium by dissolving 0.79 g of Complete Supplement Mixture and 1.7 g of Yeast Nitrogen Base in 800 mL of water. • Add 20 g of glucose. Adjust final volume to 1000 mL. Filter sterilize.
as §3, with “Inoculate […] of yeast” for “Inoculate 100 μL of yeast”, “stock into a 250 mL” for “stock into 250 mL”, “20 mL of growth medium.” for “20 mL growth medium.”
as §4, with “read. 4.5.” for “read.”, “Mitochondrial Disruption” for “Glucose”, “Assay” for “Assay Protocol”, “No. 624062” for “623971, 623967, 624013, 624025) Materials”, “624068)” for “Reagents”

[5] = phosphate buffered saline with 1% DMSO

CCOC(=O)N1C(=O)C2(CCCCC2)N(c2cccc(C)c2)C1=S [compound 56604823]
solubility at 24 h [1, 5]: 2.6 µM (≈ 0.901 µg/mL)
IC50 ([2]; CACI17, Table 4, n = 3, 48 hours, tested up to 26 μM): 8.2 µM
IC50 ([3]; W303, Table 8, n = 3, glycerol media, 48 hours, tested up to 3 μM): 0.019 µM
IC50 ([4]; W303, Table 8, n = 3, glucose media, 48 hours, tested up to 3 μM): > 3 µM

C/C=C/C1[C@H]2C[C@@H](C)CC[C@@H]2C(C)=C[C@H]1C(=O)c1c(O)c(-c2ccc(O)cc2)c[nH]c1=O (some centres unmarked) [ilicicolin H, reference compound]
solubility at 24 h [1]: < 1 µM
pIC50 ([2]; CACI17, Tables 9, 10, 12, AID 623897, read-out: C. albicans CaCi-17 growth inhibition IC50): < 5.52
pIC50 ([3]; W303, figure legends and Tables 9, 10, 13, AID 623969, read-out: Growth inhibition of S. cerevisiae on glycerol IC50): 7.52
pIC50 ([4]; W303, figure legends and Tables 9, 10, 13, AID 623971, read-out: Growth inhibition of S. cerevisiae on glucose IC50): < 5.52

CCOC(=O)N1C(=O)C2(CCCCC2)N(c2ccc(F)cc2)C1=S [CID 56604860, Ethyl 1-(4-fluorophenyl)-4-oxo-2-thioxo-1,3-diazaspiro[4.5]decane-3-carboxylate]
solubility at 24 h [1, 5]: 1.1 µM (≈ 0.385 µg/mL)
pIC50 ([2]; CACI17, read-out: C. albicans CaCi-17 growth inhibition IC50): 6.00
Fold Selective (Anti-target IC50/Target IC50), fibroblast toxicity vs CaCi-17 growth inhibition ([2]; Table 12): >37x
Reduction in potency when glucose is available instead of glycerol, S. cerevisiae [3]: greater than 250 fold
pIC50 ([3]; W303, read-out: Growth inhibition of S. cerevisiae on glycerol IC50): 8.40
Fold Selective (Glucose IC50/Glycerol IC50), S. cerevisiae ([3]; Table 13): >750x
pIC50 ([4]; W303, read-out: Growth inhibition of S. cerevisiae on glucose IC50): < 5.52

CCOC(=O)N1C(=O)C2(CCCCC2)N(c2ccc(C)cc2)C1=S [compound 3889161]
PBS Solubility ([1]; Table 4): <1.0 µM
PBS Solubility ([1]; Table 5): <1.0 µM
PBS Solubility ([1]; Table 6): <1.0 µM
PBS Solubility ([1]; Table 7): <1.0 µM
solubility at 24 h [1, 5]: < 1 µM
IC50 ([2]; CACI17, 48 h): 8.5 µM
IC50 ([3]; W303, 48 h): 0.011 µM
IC50 ([4]; W303, 48 h): > 3 µM
